In ChEMBL document CHEMBL1201862, “PubChem BioAssay data set” (2004):
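How tested: cells in 96-well plates exposed to compound for 48 hours at five concentrations. GI50 is the concentration that inhibits growth by half.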 Calls of active or inactive are those of the source. Rule as the data show it: active = GI50 up to about 1.1 µM and inactive = higher.

Columns and labels:
Test in all cases: inhibition of tumour cell growth, NCI panel, 48 h
Malme-3M = system: Malme-3M
SK-MEL-2 = system: SK-MEL-2
HOP-92 = system: HOP-92
SNB-19 = system: SNB-19
NCI-H226 = system: NCI-H226
CCRF-CEM = system: CCRF-CEM
NCI-H23 = system: NCI-H23
OVCAR-4 = system: OVCAR-4
A549 = system: A549
SK-MEL-28 = system: SK-MEL-28
MDA-MB-231 = system: MDA-MB-231
Hs-578T = system: Hs-578T
DU-145 = system: DU-145
SW-620 = system: SW-620
IGROV-1 = system: IGROV-1
U-251 = system: U-251
NCI-H460 = system: NCI-H460
OVCAR-3 = system: OVCAR-3
SF-295 = system: SF-295
TK-10 = system: TK-10

SMILES | GI50 (Malme-3M) | GI50 (SK-MEL-2) | GI50 (HOP-92) | GI50 (SNB-19) | GI50 (NCI-H226) | GI50 (CCRF-CEM) | GI50 (NCI-H23) | GI50 (OVCAR-4) | GI50 (A549) | GI50 (SK-MEL-28) | GI50 (MDA-MB-231) | GI50 (Hs-578T) | GI50 (DU-145) | GI50 (SW-620) | GI50 (IGROV-1) | GI50 (U-251) | GI50 (NCI-H460) | GI50 (OVCAR-3) | GI50 (SF-295) | GI50 (TK-10)
COC(=O)[C@H](COC(=O)/C=C/c1ccc(OC(C)=O)c(OC(C)=O)c1)NC(=O)/C=C/c1ccc(OC(C)=O)c(OC(C)=O)c1 | 5.09 µM (inactive) | 18.5 µM (inactive) | 22.2 µM (inactive) | 15.8 µM (inactive) | 29.2 µM (inactive) | 5.98 µM (inactive) | 22.4 µM (inactive) | 17.4 µM (inactive) | 30.7 µM (inactive) | 30.5 µM (inactive) | 17.7 µM (inactive) | 21.7 µM (inactive) | 14.1 µM (inactive) | 30.7 µM (inactive) | 18.5 µM (inactive) | 29.1 µM (inactive) | 22.4 µM (inactive) | 16.4 µM (inactive) | – | –
CCN(CC)CCNc1nc(N)c(C#N)c(C#N)c1C#N | > 10 µM (inactive) | – | > 10 µM (inactive) | > 10 µM (inactive) | > 10 µM (inactive) | > 10 µM (inactive) | > 10 µM (inactive) | > 10 µM (inactive) | > 10 µM (inactive) | > 10 µM (inactive) | > 10 µM (inactive) | > 10 µM (inactive) | > 10 µM (inactive) | > 10 µM (inactive) | > 10 µM (inactive) | > 10 µM (inactive) | > 10 µM (inactive) | > 10 µM (inactive) | > 10 µM (inactive) | > 10 µM (inactive)
CC1=CC(=O)/C(=C/n2c(=S)[nH]c3cc(C)ccc32)C(=O)O1 | – | > 100 µM (inactive) | > 100 µM (inactive) | > 100 µM (inactive) | > 100 µM (inactive) | 98.9 µM (inactive) | > 100 µM (inactive) | 73.8 µM (inactive) | > 100 µM (inactive) | > 100 µM (inactive) | > 100 µM (inactive) | > 100 µM (inactive) | > 100 µM (inactive) | > 100 µM (inactive) | > 100 µM (inactive) | > 100 µM (inactive) | > 100 µM (inactive) | > 100 µM (inactive) | > 100 µM (inactive) | > 100 µM (inactive)
CC(=O)NC1C(OCc2ccccc2)OC(CO)C(O)C1OCC(=O)NC(C)C(=O)NC(CCC(=O)Nc1ccc2c(c1)CN1C(=O)c3ccccc3C1=N2)C(N)=O (centres undefined) | > 100 µM (inactive) | > 100 µM (inactive) | 76.7 µM (inactive) | > 100 µM (inactive) | – | > 100 µM (inactive) | > 100 µM (inactive) | > 100 µM (inactive) | > 100 µM (inactive) | > 100 µM (inactive) | > 100 µM (inactive) | > 100 µM (inactive) | > 100 µM (inactive) | > 100 µM (inactive) | > 100 µM (inactive) | > 100 µM (inactive) | > 100 µM (inactive) | > 100 µM (inactive) | > 100 µM (inactive) | > 100 µM (inactive)
Cc1cc(C)c2c(O)c(S(=O)(=O)c3ccc(Cl)cc3)c(=O)oc2c1 | 59.7 µM (inactive) | 32.7 µM (inactive) | 65.6 µM (inactive) | 52.1 µM (inactive) | 24.3 µM (inactive) | 42.5 µM (inactive) | 84.1 µM (inactive) | 41.7 µM (inactive) | 46.3 µM (inactive) | 51.9 µM (inactive) | 78.7 µM (inactive) | 39.4 µM (inactive) | 84.9 µM (inactive) | 68.7 µM (inactive) | 31.7 µM (inactive) | 37.7 µM (inactive) | 52.2 µM (inactive) | 40 µM (inactive) | 36.5 µM (inactive) | –
CCCCNC1CCC2(SCCS2)c2[nH]c3ccccc3c21 (centres undefined) | 16.5 µM (inactive) | – | 28.4 µM (inactive) | 29.6 µM (inactive) | 42 µM (inactive) | 3.2 µM (inactive) | 32 µM (inactive) | > 54.1 µM (inactive) | 56.9 µM (inactive) | 34.3 µM (inactive) | 16.6 µM (inactive) | 29.8 µM (inactive) | 19.1 µM (inactive) | 25.8 µM (inactive) | 25.4 µM (inactive) | 43.1 µM (inactive) | 33.3 µM (inactive) | 8.41 µM (inactive) | 34.5 µM (inactive) | 13.2 µM (inactive)
O=C1C2=Cc3ccccc3CCN2c2ccc([N+](=O)[O-])cc21 | 32.7 µM (inactive) | – | 41.2 µM (inactive) | > 100 µM (inactive) | 64 µM (inactive) | 53.3 µM (inactive) | 38.5 µM (inactive) | > 100 µM (inactive) | 31.3 µM (inactive) | > 100 µM (inactive) | > 100 µM (inactive) | 64.6 µM (inactive) | 96.2 µM (inactive) | > 100 µM (inactive) | > 100 µM (inactive) | > 100 µM (inactive) | 30.7 µM (inactive) | 44.2 µM (inactive) | 36.6 µM (inactive) | 83 µM (inactive)
Clc1nc(Cl)c(Cc2ccccc2)c(Cl)n1 | 5.35 µM (inactive) | 7.45 µM (inactive) | – | 17.9 µM (inactive) | 13.3 µM (inactive) | 3.27 µM (inactive) | 8.32 µM (inactive) | 3.67 µM (inactive) | 12.5 µM (inactive) | 10.5 µM (inactive) | 3.75 µM (inactive) | 2.66 µM (inactive) | 14.8 µM (inactive) | 3.09 µM (inactive) | 5.97 µM (inactive) | 11.7 µM (inactive) | > 10 µM (inactive) | 2.43 µM (inactive) | 14.4 µM (inactive) | 18.3 µM (inactive)
O=C(c1cc(Cl)ccc1Cl)N1CCN(c2cccc(Cl)c2)CC1 | 11.1 µM (inactive) | – | > 10 µM (inactive) | 34.8 µM (inactive) | 12.8 µM (inactive) | 12.2 µM (inactive) | 32.9 µM (inactive) | 33 µM (inactive) | 11 µM (inactive) | 15.6 µM (inactive) | 5.6 µM (inactive) | 21.9 µM (inactive) | 31.5 µM (inactive) | 24.2 µM (inactive) | 10.8 µM (inactive) | 19 µM (inactive) | 14.6 µM (inactive) | 14.5 µM (inactive) | 7.55 µM (inactive) | 49.5 µM (inactive)
NC(=S)Nc1nc(=S)[nH]c2[nH]ccc12 | – | > 100 µM (inactive) | > 100 µM (inactive) | > 100 µM (inactive) | > 100 µM (inactive) | 24.2 µM (inactive) | > 100 µM (inactive) | – | > 100 µM (inactive) | > 100 µM (inactive) | > 100 µM (inactive) | 23.4 µM (inactive) | > 100 µM (inactive) | > 100 µM (inactive) | 88.5 µM (inactive) | 93.1 µM (inactive) | > 100 µM (inactive) | 29.7 µM (inactive) | 65.5 µM (inactive) | 94.8 µM (inactive)
CCOC(=O)C1=CNC2=N[C@H]3CCCC[C@@H]3N2C1=O | > 100 µM (inactive) | > 100 µM (inactive) | > 100 µM (inactive) | > 100 µM (inactive) | > 100 µM (inactive) | > 100 µM (inactive) | > 100 µM (inactive) | > 100 µM (inactive) | > 100 µM (inactive) | > 100 µM (inactive) | > 100 µM (inactive) | > 100 µM (inactive) | > 100 µM (inactive) | > 100 µM (inactive) | > 100 µM (inactive) | > 100 µM (inactive) | > 100 µM (inactive) | > 100 µM (inactive) | > 100 µM (inactive) | –
CC(=O)NC1C(OCc2ccccc2)OC(CO)C(O)C1OCC(=O)NC(C)C(=O)NC(CCC(=O)NCCCCCC(=O)Nc1ccc2c(c1)CN1C(=O)c3ccccc3C1=N2)C(N)=O (centres undefined) | 78.3 µM (inactive) | > 100 µM (inactive) | 25.3 µM (inactive) | 63.1 µM (inactive) | – | 32.7 µM (inactive) | 67.5 µM (inactive) | > 100 µM (inactive) | 72.8 µM (inactive) | > 100 µM (inactive) | > 100 µM (inactive) | > 100 µM (inactive) | > 100 µM (inactive) | 43.5 µM (inactive) | > 100 µM (inactive) | 48.3 µM (inactive) | 43.1 µM (inactive) | > 100 µM (inactive) | 75.7 µM (inactive) | 30.3 µM (inactive)
Cc1ccc2c(c1)[nH]c(=S)n2C=C1C(=O)CC(C)(C)CC1=O | – | > 100 µM (inactive) | > 100 µM (inactive) | > 100 µM (inactive) | > 100 µM (inactive) | > 100 µM (inactive) | > 100 µM (inactive) | > 100 µM (inactive) | > 100 µM (inactive) | > 100 µM (inactive) | > 100 µM (inactive) | > 100 µM (inactive) | > 100 µM (inactive) | > 100 µM (inactive) | 15.8 µM (inactive) | > 100 µM (inactive) | > 100 µM (inactive) | > 100 µM (inactive) | > 100 µM (inactive) | > 100 µM (inactive)
COc1cc(/C=C/C(=O)CC(=O)/C=C/c2cc(C)c(O)c(OC)c2)cc(C)c1O | > 100 µM (inactive) | > 100 µM (inactive) | < 0.01 µM (active) | > 100 µM (inactive) | > 100 µM (inactive) | 65.6 µM (inactive) | > 100 µM (inactive) | > 100 µM (inactive) | > 100 µM (inactive) | > 100 µM (inactive) | > 100 µM (inactive) | > 100 µM (inactive) | > 100 µM (inactive) | > 100 µM (inactive) | > 100 µM (inactive) | > 100 µM (inactive) | > 100 µM (inactive) | 83.4 µM (inactive) | > 100 µM (inactive) | –
